Experimental data published in patent US20170247429A1, “BLOOD-BRAIN BARRIER DISRUPTING AGENTS AND USES THEREOF” (TEL HASHOMER MEDICAL RESEARCH INFRASTRUCTURE AND SERVICES …, priority 2014, published 2017).

Columns and labels:
[1] = system: brain-glioma (CNS-1) tumor; assay: Tumor growth in glioma rat model (T1-weighted MRI tumor volumes); assay type: in vivo, Lewis male rats; details: MTX 6 mg/kg IP, EA-HSA 0.5 mg/ml CED where combined
Protocol: Intracranial inoculation of the tumor was performed as follows: a midline scalp incision was carried out under general anesthesia in order to locate the bregma. A burr hole (1 mm) was drilled on the right side, 3 mm anterior and 2 mm lateral to the bregma. A 33-gauge needle attached to a 1,000 μl syringe was placed stereotactically into the striatum to a depth of 5 mm through which a pellet of 2×10^5 CNS-1 rat glioma cells precipitated in 10 μl PBS buffer was infused into the striatum. The infusion was performed with a BASI syringe pump at a rate of 2 μl/min over a period of 5 min. The burr hole was sealed with bone wax to avoid the tumors from growing out of the skull. The intracranial inoculation of the tumor is designated Day-4 in Table 2.
EA-HSA was administered by CED into the rat brains under full anesthesia. For CED, a midline scalp incision was made under anesthesia to identify the bregma. Then, a burr hole (1 mm) was made in the right region of the skull, 3 mm anterior and 2 mm lateral to the bregma. […]
The volume (in mm^3) of BBB disruption and the increase in tumor volume were calculated from T1-weighted MR images. […] The number of pixels in the ROIs was then counted and multiplied by the volume of a single pixel (voxel). Tumor growth rates were calculated by dividing the tumor volumes at days 2 and 7 post treatment with the baseline tumor volumes (measured at day 0).

[2] = rat, in vivo, ip, 6 mg/kg
Protocol: Additionally, MTX was administered intraperitoneally to naïve rats (n=26) at a dosage of 6 mg/kg body weight on days 0, 2 and 4. […] The combined administration, MTX even at three times of its maximal tolerated dose, with folinic acid prevented MTX toxicity.

[3] = system: intracranial CNS-1 glioma tumors; assay: Survival of glioma-bearing rats (Kaplan-Meier); assay type: in vivo, Lewis male rats; details: rats bearing intracranial CNS-1 glioma; monitored up to 60 days
Protocol: The three rats groups were monitored for survival. Rats were monitored daily and sacrificed when lost>20% of body weight and/or were unable to eat or drink. Rats were monitored up to 60 days after the tumor cell implantation. The Kaplan-Meier survival curves were analyzed according to the Wilcoxon test.

## CN(Cc1cnc2nc(N)nc(N)c2n1)c1ccc(C(=O)N[C@@H](CCC(=O)O)C(=O)O)cc1 [MTX, Methotrexate]
[1]; day 2 post treatment
  tumor volume normalized to day 0 (tumor growth rate): 2.2±0.4
[1]; day 7 post treatment
  tumor volume normalized to day 0 (tumor growth rate): 2.2±0.4
[2]
  toxicity of MTX regimen: symptomatic toxicity
[3]
  median survival time: 12 days
